Results reported in patent US20120045393A1 (priority 2009, published 2012).
Non-standard residues stand in square brackets, D forms with d. Residues, ends and D or L forms follow the SMILES beside them. *: point of attachment. DOTA = O=C(O)CN1CCN(CC(=O)O)CCN(CC(=O)*)CCN(CC(=O)O)CC1; Bpa = N[C@@H](Cc1ccc(C(=O)c2ccccc2)cc1)C(=O)O; Nicotinoyl = O=C(c1cccnc1)*; azaGly = NNC(=O)O; Sar = CNCC(=O)O

test system: LHRH binding sites on human ovarian cancer cells (EFO-27); details: not given
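Also: Cell-associated radioactivity on confluent EFO-27 monolayers in 96-well plates, measured by microplate scintillation counting.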

SMILES	EC50 [nM]
CCNC(=O)[C@@H]1CCCN1C(=O)[C@H](Cc1ccc(C(=O)c2ccccc2)cc1)NC(=O)[C@H](Cc1c[nH]c2ccccc12)NC(=O)[C@@H](CCCNC(=N)N)NC(=O)[C@H](Cc1c[nH]cn1)NC(=O)[C@H](CO)NC(=O)[C@H](Cc1c[nH]c2ccccc12)NC(=O)[C@H](CCCNC(=N)N)NC(=O)[C@@H](Cc1ccc2ccccc2c1)NC(=O)CN1CCN(CC(=O)O)CCN(CC(=O)O)CCN(CC(=O)O)CC1 [compound 2981]	970
N=C(N)NCCC[C@H](NC(=O)[C@H](N)Cc1ccc2ccccc2c1)C(=O)N[C@@H](Cc1c[nH]c2ccccc12)C(=O)N[C@@H](CO)C(=O)N[C@@H](Cc1c[nH]cn1)C(=O)N[C@H](CCCNC(=N)N)C(=O)N[C@@H](Cc1c[nH]c2ccccc12)C(=O)N[C@@H](Cc1ccc(C(=O)c2ccccc2)cc1)C(=O)N1CCC[C@H]1C(=O)NCCOCCNC(=O)CN1CCN(CC(=O)O)CCN(CC(=O)O)CCN(CC(=O)O)CC1 [compound 2991]	210 ± 60
CNCC(=O)N[C@@H](CCCNC(=N)N)C(=O)N[C@@H](Cc1c[nH]c2ccccc12)C(=O)N[C@@H](CO)C(=O)N[C@@H](Cc1c[nH]cn1)C(=O)N[C@H](CCCNC(=N)N)C(=O)N[C@@H](Cc1c[nH]c2ccccc12)C(=O)N[C@@H](Cc1ccc(C(=O)c2ccccc2)cc1)C(=O)N1CCC[C@H]1C(=O)NCC1CCCCN1C(=O)CN1CCN(CC(=O)O)CCN(CC(=O)O)CCN(CC(=O)O)CC1 (stereo partly drawn) [compound 3102]	200 ± 70
CN(CC(=O)N[C@@H](Cc1c[nH]cn1)C(=O)N[C@@H](Cc1c[nH]c2ccccc12)C(=O)N[C@@H](CO)C(=O)N[C@@H](Cc1c[nH]cn1)C(=O)N[C@H](CCCCNC(=O)c1cccnc1)C(=O)N[C@@H](Cc1c[nH]c2ccccc12)C(=O)N[C@@H](Cc1ccc(O)cc1)C(=O)N1CCC[C@H]1C(=O)NNC(N)=O)C(=O)CN1CCN(CC(=O)O)CCN(CC(=O)O)CCN(CC(=O)O)CC1 [compound 2674] ({DOTA}-[Sar]HWSH[dK](Nicotinoyl)WYP[azaGly]-NH2)	22600
CC(=O)N[C@H](Cc1ccc2ccccc2c1)C(=O)N[C@@H](CCCNC(=N)N)C(=O)N[C@@H](Cc1c[nH]c2ccccc12)C(=O)N[C@@H](CO)C(=O)N[C@@H](Cc1c[nH]cn1)C(=O)N[C@H](CCCNC(=N)N)C(=O)N[C@@H](Cc1c[nH]c2ccccc12)C(=O)N[C@@H](Cc1ccc(C(=O)c2ccccc2)cc1)C(=O)N1CCC[C@H]1C(=O)NCCOCCNC(=O)CN1CCN(CC(=O)O)CCN(CC(=O)O)CCN(CC(=O)O)CC1 [compound 2992]	470 ± 20

Results, then the molecule that gave them:

EC50 [nM]	SMILES
≤ 200	CNCC(=O)N[C@@H](CCCNC(=N)N)C(=O)N[C@@H](Cc1c[nH]c2ccccc12)C(=O)N[C@@H](CO)C(=O)N[C@@H](Cc1c[nH]cn1)C(=O)N[C@H](CCCNC(=N)N)C(=O)N[C@@H](Cc1c[nH]c2ccccc12)C(=O)N[C@@H](Cc1ccc(C(=O)c2ccccc2)cc1)C(=O)N1CCC[C@H]1C(=O)NCCCN(C)CCCNC(=O)CN1CCN(CC(=O)O)CCN(CC(=O)O)CCN(CC(=O)O)CC1 [BRU-3045]
10000	CN(CC(=O)N[C@@H](Cc1c[nH]cn1)C(=O)N[C@@H](Cc1c[nH]c2ccccc12)C(=O)N[C@@H](CO)C(=O)N[C@@H](Cc1c[nH]cn1)C(=O)N[C@H](CCCNC(=N)N)C(=O)N[C@@H](Cc1c[nH]c2ccccc12)C(=O)N[C@@H](Cc1cscn1)C(=O)N1CCC[C@H]1C(=O)NNC(N)=O)C(=O)CN1CCN(CC(=O)O)CCN(CC(=O)O)CCN(CC(=O)O)CC1 [BRU-2742]
590 to 1000	CNCC(=O)N[C@@H](Cc1c[nH]cn1)C(=O)N[C@@H](Cc1c[nH]c2ccccc12)C(=O)N[C@@H](CO)C(=O)N[C@@H](Cc1c[nH]cn1)C(=O)N[C@H](CCCNC(=N)N)C(=O)N[C@@H](Cc1c[nH]c2ccccc12)C(=O)N[C@@H](Cc1ccc(C(=O)c2ccccc2)cc1)C(=O)N1CCC[C@H]1C(=O)NCCNC(=O)CN1CCN(CC(=O)O)CCN(CC(=O)O)CCN(CC(=O)O)CC1 [BRU-3079]
≤ 200	N=C(N)NCCC[C@H](NC(=O)[C@H](N)Cc1ccc2ccccc2c1)C(=O)N[C@@H](Cc1c[nH]c2ccccc12)C(=O)N[C@@H](CO)C(=O)N[C@@H](Cc1c[nH]cn1)C(=O)N[C@H](CCCNC(=N)N)C(=O)N[C@@H](Cc1c[nH]c2ccccc12)C(=O)N[C@@H](Cc1ccc(C(=O)c2ccccc2)cc1)C(=O)N1CCC[C@H]1C(=O)NCCCCNC(=O)CN1CCN(CC(=O)O)CCN(CC(=O)O)CCN(CC(=O)O)CC1 [BRU-3042]
230 to 500	CNCC(=O)N[C@@H](CCCNC(=N)N)C(=O)N[C@@H](Cc1c[nH]c2ccccc12)C(=O)N[C@@H](CO)C(=O)N[C@@H](Cc1c[nH]cn1)C(=O)N[C@H](CCCNC(=N)N)C(=O)N[C@@H](Cc1c[nH]c2ccccc12)C(=O)N[C@@H](Cc1ccc(C(=O)c2ccccc2)cc1)C(=O)N1CCC[C@H]1C(=O)NCCOCCNC(=O)CN1CCN(CC(=O)O)CCN(CC(=O)O)CCN(CC(=O)O)CC1 [BRU-3039]
630	CN(CC(=O)N[C@@H](Cc1c[nH]cn1)C(=O)N[C@@H](Cc1c[nH]c2ccccc12)C(=O)N[C@@H](CO)C(=O)N[C@@H](Cc1c[nH]cn1)C(=O)N[C@H](CCCNC(=N)N)C(=O)N[C@@H](Cc1c[nH]c2ccccc12)C(=O)N[C@@H](CC1CCCCC1)C(=O)N1CCC[C@H]1C(=O)NNC(N)=O)C(=O)CN1CCN(CC(=O)O)CCN(CC(=O)O)CCN(CC(=O)O)CC1 [BRU-2718]

same assay, conditions: BRU-2441 vs BRU-2439; BRU-2666 vs Sar1 analog; BRU-3072 vs Pro9 analog

SMILES	times more potent than the comparator analog
CNCC(=O)N[C@@H](Cc1c[nH]cn1)C(=O)N[C@@H](Cc1c[nH]c2ccccc12)C(=O)N[C@@H](CO)C(=O)N[C@@H](Cc1cnc[nH]1)C(=O)N[C@H](CCCNC(=N)N)C(=O)N[C@@H](Cc1c[nH]c2ccccc12)C(=O)N[C@@H](Cc1ccc(C(=O)c2ccccc2)cc1)C(=O)N1CCC[C@H]1C(=O)NNC(N)=O [BRU-2441, Sar-His-Trp-Ser-His-Darg-Trp-Bpa-Pro-azaGly-NH2]	~2

same assay, conditions: EFO-27 cells, competition with [125I-Tyr8]BRU-2477, 90 min

SMILES	EC50 [nM]
CN(CC(=O)N[C@@H](Cc1c[nH]cn1)C(=O)N[C@@H](Cc1c[nH]c2ccccc12)C(=O)N[C@@H](CO)C(=O)N[C@@H](Cc1c[nH]cn1)C(=O)N[C@H](CCCCNC(=N)N)C(=O)N[C@@H](Cc1c[nH]c2ccccc12)C(=O)N[C@@H](Cc1ccc(C(=O)c2ccccc2)cc1)C(=O)N1CCC[C@H]1C(=O)NNC(N)=O)C(=O)CN1CCN(CC(=O)O)CCN(CC(=O)O)CCN(CC(=O)O)CC1 [BRU-2893]	2600
CN(CC(=O)N[C@@H](Cc1c[nH]cn1)C(=O)N[C@@H](Cc1c[nH]c2ccccc12)C(=O)N[C@@H](CO)C(=O)N[C@@H](Cc1c[nH]cn1)C(=O)N[C@H](CCCCNC(=O)c1cccnc1)C(=O)N[C@@H](Cc1c[nH]c2ccccc12)C(=O)N[C@@H](Cc1ccc(C(=O)c2ccccc2)cc1)C(=O)N1CCC[C@H]1C(=O)NNC(N)=O)C(=O)CN1CCN(CC(=O)O)CCN(CC(=O)O)CCN(CC(=O)O)CC1 [compound 2671] ({DOTA}-[Sar]HWSH[dK](Nicotinoyl)W[Bpa]P[azaGly]-NH2)	7200
N=C(N)NCCC[C@H](NC(=O)[C@H](Cc1ccc2ccccc2c1)NC(=O)CN1CCN(CC(=O)O)CCN(CC(=O)O)CCN(CC(=O)O)CC1)C(=O)N[C@@H](Cc1c[nH]c2ccccc12)C(=O)N[C@@H](CO)C(=O)N[C@@H](Cc1c[nH]cn1)C(=O)N[C@H](CCCNC(=N)N)C(=O)N[C@@H](Cc1c[nH]c2ccccc12)C(=O)N[C@@H](Cc1ccc(C(=O)c2ccccc2)cc1)C(=O)N1CCC[C@H]1C(=O)NNC(N)=O [BRU-3051]	620
N=C(N)NCCC[C@H](NC(=O)[C@H]1Cc2c([nH]c3ccccc23)CN1C(=O)CNC(=O)CN1CCN(CC(=O)O)CCN(CC(=O)O)CCN(CC(=O)O)CC1)C(=O)N[C@@H](Cc1c[nH]c2ccccc12)C(=O)N[C@@H](CO)C(=O)N[C@@H](Cc1c[nH]cn1)C(=O)N[C@H](CCCNC(=N)N)C(=O)N[C@@H](Cc1c[nH]c2ccccc12)C(=O)N[C@@H](Cc1ccc(C(=O)c2ccccc2)cc1)C(=O)N1CCC[C@H]1C(=O)NNC(N)=O [BRU-3068]	240
CN(CC(=O)N[C@@H](Cc1c[nH]cn1)C(=O)N[C@@H](Cc1c[nH]c2ccccc12)C(=O)N[C@@H](CO)C(=O)N[C@@H](Cc1c[nH]cn1)C(=O)N[C@H](Cc1c[nH]c2ccccc12)C(=O)N[C@@H](Cc1c[nH]c2ccccc12)C(=O)N[C@@H](Cc1ccc(C(=O)c2ccccc2)cc1)C(=O)N1CCC[C@H]1C(=O)NNC(N)=O)C(=O)CN1CCN(CC(=O)O)CCN(CC(=O)O)CCN(CC(=O)O)CC1 [compound 2731] ({DOTA}-[Sar]HWSH[dW]W[Bpa]P[azaGly]-NH2)	1360
C[C@@H](NC(=O)[C@H](Cc1c[nH]cn1)NC(=O)[C@H](CO)NC(=O)[C@H](Cc1c[nH]c2ccccc12)NC(=O)[C@H](Cc1c[nH]cn1)NC(=O)CN(C)C(=O)CN1CCN(CC(=O)O)CCN(CC(=O)O)CCN(CC(=O)O)CC1)C(=O)N[C@@H](Cc1c[nH]c2ccccc12)C(=O)N[C@@H](Cc1ccc(C(=O)c2ccccc2)cc1)C(=O)N1CCC[C@H]1C(=O)NNC(N)=O [compound 2672] ({DOTA}-[Sar]HWSH[dA]W[Bpa]P[azaGly]-NH2)	14000

same assay, conditions: Table 5: modifications of amino acids at positions 1 and 2; in vitro binding on EFO-27 cells

SMILES	EC50 [nM]
CN(CC(=O)N[C@@H](Cc1c[nH]cn1)C(=O)N[C@@H](Cc1c[nH]c2ccccc12)C(=O)N[C@@H](CO)C(=O)N[C@@H](Cc1c[nH]cn1)C(=O)N[C@H](CCCNC(=N)N)C(=O)N[C@@H](Cc1c[nH]c2ccccc12)C(=O)N[C@@H](Cc1ccc(C(=O)c2ccccc2)cc1)C(=O)N1CCC[C@H]1C(=O)NNC(N)=O)C(=O)CNC(=O)CN1CCN(CC(=O)O)CCN(CC(=O)O)CCN(CC(=O)O)CC1 [BRU-2717]	1550
N=C(N)NCCC[C@@H](NC(=O)[C@H](Cc1c[nH]cn1)NC(=O)[C@H](CO)NC(=O)[C@H](Cc1c[nH]c2ccccc12)NC(=O)[C@H](Cc1c[nH]cn1)NC(=O)[C@H](NC(=O)CNC(=O)CN1CCN(CC(=O)O)CCN(CC(=O)O)CCN(CC(=O)O)CC1)c1cccc2ccccc12)C(=O)N[C@@H](Cc1c[nH]c2ccccc12)C(=O)N[C@@H](Cc1ccc(C(=O)c2ccccc2)cc1)C(=O)N1CCC[C@H]1C(=O)NNC(N)=O [BRU-2770]	2700
N=C(N)NCCC[C@@H](NC(=O)[C@H](Cc1c[nH]cn1)NC(=O)[C@H](CO)NC(=O)[C@H](Cc1c[nH]c2ccccc12)NC(=O)[C@H](Cc1c[nH]cn1)NC(=O)[C@@H](Cc1ccc(O)cc1)NC(=O)CN1CCN(CC(=O)O)CCN(CC(=O)O)CCN(CC(=O)O)CC1)C(=O)N[C@@H](Cc1c[nH]c2ccccc12)C(=O)N[C@@H](Cc1ccc(C(=O)c2ccccc2)cc1)C(=O)N1CCC[C@H]1C(=O)NNC(N)=O [BRU-2870] ({DOTA}-[dY]HWSH[dR]W[Bpa]P[azaGly]-NH2)	10000
